According to patent US6586405B2, “Non-covalent inhibitors of urokinase and blood vessel formation” (Corvas International, Inc., priority 2000, dated 2003):

Columns and labels:
Format in all cases: biochemical
[1] = target: T1, Urokinase (Abbokinase) (Homo sapiens, UniProt P00749); assay: Urokinase assay, chromogenic substrate S-2444; details: Ki calculated using the IC50 value; 30 minute incubation, HBSA buffer; read-out: Ki uPA
T1 construct: purchased Abbott Laboratories (manufacturer), obtained from Priority Pharmaceuticals
Experimental: (§1) The ability of compounds of the present invention to act as selective inhibitors of urokinase catalytic activity was assessed by determining the concentration of test compound which inhibited the activity of this enzyme by 50%, (IC50), and comparing this value to that determined for all or some of the following related serine proteases: recombinant tissue plasminogen activator (rt-PA), plasmin, activated protein C, chymotrypsin, factor Xa, thrombin and trypsin.
(§2) The buffer used for all assays was HBSA (10 mM HEPES, pH 7.5, 150 mM sodium chloride, 0.1% bovine serum albumin).
(§3) The assay for IC50 determinations was conducted by combining in appropriate wells of a Corning microtiter plate, 50 microliters of HBSA, 50 microliters of the test compound at a specified concentration (covering a broad concentration range) diluted in HBSA (or HBSA alone for VO (uninhibited velocity) measurement), and 50 microliters of the enzyme diluted in HESA. Following a 30 minute incubation at ambient temperature, 50 microliters of the substrate at the concentrations specified below were added to the wells, yielding a final total volume of 200 microliters (about 4 times Km). The initial velocity of chromogenic substrate hydrolysis was measured by the change in absorbance at 405 nm using a Thermo Max® Kinetic Microplate Reader over a 5 minute period in which less than 5% of the added substrate was utilized. The concentration of added inhibitor which caused a 50% decrease in the initial rate of hydrolysis was defined as the IC50 value. Ki may be calculated from the IC50 value.
Urokinase catalytic activity was determined using the chromogenic substrate […] S-2444 (L-Pyroglutamyl-glycyl-L-arginine-p-nitroaniline hydrochloride), obtained from DiaPharma Group, Inc. Urokinase (Abbokinase), manufactured by Abbott Laboratories, was obtained from Priority Pharmaceuticals and diluted to 750 pM in the HBSA assay buffer prior to use. The assay buffer was HBS (10 mM HEPES, 150 mM sodium chloride pH 7.4) with 0.1% BSA. Ki was calculated using the IC50 value.

[2] = target: T2, Human rt-PA (Activase) (Homo sapiens, UniProt P00750); assay: Recombinant tissue plasminogen activator (rt-PA) assay, chromogenic substrate Pefachrome t-PA; details: 30 minute incubation, HBSA buffer, rt-PA 1.0 nM
T2 construct: purchased Genentech Inc
T2 sequence (P00750 36-562): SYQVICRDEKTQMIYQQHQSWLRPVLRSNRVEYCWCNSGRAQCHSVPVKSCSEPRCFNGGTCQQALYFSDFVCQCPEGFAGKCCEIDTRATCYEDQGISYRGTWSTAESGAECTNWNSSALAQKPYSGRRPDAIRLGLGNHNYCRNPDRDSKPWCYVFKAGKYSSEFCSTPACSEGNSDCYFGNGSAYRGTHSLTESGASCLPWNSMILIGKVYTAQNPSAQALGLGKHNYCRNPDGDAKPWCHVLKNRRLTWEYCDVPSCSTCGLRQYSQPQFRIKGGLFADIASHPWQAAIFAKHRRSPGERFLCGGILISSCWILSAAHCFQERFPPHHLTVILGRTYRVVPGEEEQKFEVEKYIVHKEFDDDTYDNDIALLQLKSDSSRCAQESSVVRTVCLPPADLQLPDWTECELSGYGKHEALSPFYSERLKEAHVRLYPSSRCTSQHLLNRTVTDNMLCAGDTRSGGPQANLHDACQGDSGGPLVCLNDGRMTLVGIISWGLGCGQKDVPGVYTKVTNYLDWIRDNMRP
Experimental: as §1, §2, §3
rt-PA catalytic activity was determined using the substrate, Pefachrome t-PA (CH3SO2-D-hexahydrotyrosine-glycyl-L-arginine-p-nitroaniline, obtained from Pentapharm Ltd.). The substrate was made up in deionized water followed by dilution in HBSA prior to the assay in which the final concentration was 500 micromolar (about 3-times Km). Human rt-PA (Activase®) was obtained from Genentech Inc. The enzyme was reconstituted in deionized water and diluted into HBSA prior to the assay in which the final concentration was 1.0 nM.

[3] = target: T3, human plasmin (Homo sapiens, UniProt P00747); assay: Plasmin assay, chromogenic substrate S-2366; details: 30 minute incubation, HBSA buffer, plasmin 1.0 nM
T3 construct: Purified human plasmin was obtained from Enzyme Research Laboratories, Inc; purchased Enzyme Research Laboratories, Inc
T3 sequence (P00747 581-810 limits assumed): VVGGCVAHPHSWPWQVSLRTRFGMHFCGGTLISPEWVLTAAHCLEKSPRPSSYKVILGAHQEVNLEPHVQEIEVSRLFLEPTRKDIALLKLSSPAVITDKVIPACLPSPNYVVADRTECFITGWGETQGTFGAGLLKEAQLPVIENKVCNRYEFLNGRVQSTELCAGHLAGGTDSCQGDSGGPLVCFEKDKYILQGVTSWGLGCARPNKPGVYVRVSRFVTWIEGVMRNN
T3 sequence (P00747 97-580 partner limits assumed): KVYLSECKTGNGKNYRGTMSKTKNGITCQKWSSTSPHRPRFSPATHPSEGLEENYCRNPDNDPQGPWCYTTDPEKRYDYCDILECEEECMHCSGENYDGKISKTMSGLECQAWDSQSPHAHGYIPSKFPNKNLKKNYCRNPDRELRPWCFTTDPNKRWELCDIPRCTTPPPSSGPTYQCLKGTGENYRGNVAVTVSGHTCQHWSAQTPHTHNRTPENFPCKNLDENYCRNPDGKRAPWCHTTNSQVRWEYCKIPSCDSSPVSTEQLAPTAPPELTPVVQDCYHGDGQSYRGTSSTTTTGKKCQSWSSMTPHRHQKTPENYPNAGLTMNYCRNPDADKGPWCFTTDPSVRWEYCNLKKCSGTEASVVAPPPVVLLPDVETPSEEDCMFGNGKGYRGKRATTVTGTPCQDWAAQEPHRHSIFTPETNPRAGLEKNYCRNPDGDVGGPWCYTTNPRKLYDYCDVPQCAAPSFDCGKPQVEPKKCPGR
Experimental: as §1, §2, §3
Plasmin catalytic activity was determined using the chromogenic substrate, S-2366 [L-pyroglutamyl-L-prolyl-L-arginine-p-nitroaniline hydrochloride], which was obtained from DiaPharma Group. The substrate was made up in deionized water followed by dilution in HBSA prior to the assay in which the final concentration was 300 micromolar (about 2.5-times Km). Purified human plasmin was obtained from Enzyme Research Laboratories, Inc. The enzyme was diluted into HBSA prior to assay in which the final concentration was 1.0 nM.

CCCCS(=O)(=O)NC(CO)C(=O)N1CC2CC2C1C(=O)NCc1ccc(C(=N)N)cc1 (mixture of isomers) [AA]
Ki [1]: < 100 nM | IC50 [2]: > 2500 nM | IC50 [3]: > 2500 nM

CCCCS(=O)(=O)NC(CO)C(=O)N1CCCC1C(=O)NCc1ccc(C(=N)N)cc1 (mixture of isomers) [N]
Ki [1]: < 100 nM | IC50 [2]: > 2500 nM | IC50 [3]: > 2500 nM

CCCCS(=O)(=O)NC(CO)C(=O)N1CC=CC1C(=O)NCc1ccc(C(=N)N)cc1 (mixture of isomers) [O]
Ki [1]: < 100 nM | IC50 [2]: > 2500 nM | IC50 [3]: > 2500 nM

N=C(N)c1ccc(CNC(=O)C2C=CCN2C(=O)C(CO)NS(=O)(=O)Cc2ccccc2)s1 (mixture of isomers) [U]
Ki [1]: < 100 nM | IC50 [2]: 250 to 2500 nM | IC50 [3]: 250 to 2500 nM

N=C(N)c1ccc(CNC(=O)C2C3CC3CN2C(=O)C(CO)NS(=O)(=O)Cc2ccccc2)cc1 (stereo not drawn) [AD]
Ki [1]: < 100 nM | IC50 [2]: > 2500 nM | IC50 [3]: 250 to 2500 nM

CCCCS(=O)(=O)NC(CO)C(=O)NC(C)C(=O)NCc1ccc(NC(=N)N)cc1 (stereo not drawn) [AG]
Ki [1]: < 100 nM | IC50 [2]: > 2500 nM | IC50 [3]: > 2500 nM

C[C@H](NC(=O)[C@@H](CO)NS(=O)(=O)Cc1ccccc1)C(=O)NCc1ccc(C(=N)N)s1 [AH]
Ki [1]: < 100 nM | IC50 [2]: 250 to 2500 nM | IC50 [3]: > 2500 nM

C[C@H](NC(=O)[C@@H](CO)NS(=O)(=O)c1ccc2ccccc2c1)C(=O)NCc1ccc(C(=N)N)cc1 [AI]
Ki [1]: 100 to 250 nM | IC50 [2]: > 2500 nM | IC50 [3]: > 2500 nM

C[C@H](NC(=O)[C@@H](CO)NS(=O)(=O)Cc1ccccc1)C(=O)NCc1ccc(C(=N)N)cc1 [AJ]
IC50 [2]: > 2500 nM | IC50 [3]: > 2500 nM

C[C@H](NC(=O)[C@@H](C)NS(=O)(=O)Cc1ccccc1)C(=O)NCc1ccc(C(=N)N)cc1 [AK]
Ki [1]: < 100 nM | IC50 [2]: > 2500 nM | IC50 [3]: > 2500 nM

C=CC[C@H](NC(=O)[C@@H](CO)NS(=O)(=O)Cc1ccccc1)C(=O)NCc1ccc(C(=N)N)cc1 [AL]
Ki [1]: < 100 nM | IC50 [2]: > 2500 nM | IC50 [3]: > 2500 nM

C[C@H](NC(=O)[C@@H](CO)NS(=O)(=O)Cc1ccccc1)C(=O)NCc1ccc(NC(=N)NC(=O)OC(C)(C)C)cc1 [AM]
Ki [1]: < 100 nM | IC50 [2]: > 2500 nM | IC50 [3]: > 2500 nM

C[C@H](NC(=O)[C@@H](CO)NS(=O)(=O)Cc1ccccc1)C(=O)NCc1ccc(NC(=N)N)cc1 [AN]
Ki [1]: < 100 nM | IC50 [2]: > 2500 nM | IC50 [3]: > 2500 nM

C[C@H](NC(=O)[C@@H](CO)NS(=O)(=O)Cc1ccccc1)C(=O)NCc1ccc(C(=N)N)cn1 [AO]
Ki [1]: 100 to 250 nM | IC50 [2]: > 2500 nM | IC50 [3]: > 2500 nM

C[C@@H](NC(=O)[C@@H](CO)NS(=O)(=O)c1cccc2ccccc12)C(=O)NCc1ccc(C(=N)N)cc1 [AP]
Ki [1]: < 100 nM | IC50 [2]: > 2500 nM | IC50 [3]: > 2500 nM

N=C(N)Nc1ccc(CNC(=O)Cn2cccc(NS(=O)(=O)Cc3ccccc3)c2=O)cc1 [AR]
Ki [1]: 250 to 2500 nM | IC50 [2]: > 2500 nM | IC50 [3]: > 2500 nM

CCC[C@H](NC(=O)[C@@H](CO)NS(=O)(=O)Cc1ccccc1)C(=O)NCc1ccc(C(=N)N)cc1 [AS]
Ki [1]: < 100 nM | IC50 [2]: > 2500 nM | IC50 [3]: > 2500 nM

CC[C@H](NC(=O)[C@@H](CO)NS(=O)(=O)Cc1ccccc1)C(=O)NCc1ccc(C(=N)N)cc1 [AT]
Ki [1]: < 100 nM | IC50 [2]: > 2500 nM | IC50 [3]: > 2500 nM

C[C@H](NC(=O)[C@@H](CO)NS(C)(=O)=O)C(=O)NCc1ccc(C(=N)N)cc1 [AU]
Ki [1]: 250 to 2500 nM | IC50 [2]: > 2500 nM | IC50 [3]: > 2500 nM

N=C(N)Nc1ccc(CNC(=O)[C@@H]2C=CCN2C(=O)[C@@H](CO)NS(=O)(=O)Cc2ccccc2)cc1 [AV]
Ki [1]: < 100 nM | IC50 [2]: > 2500 nM | IC50 [3]: > 2500 nM

C[C@H](NC(=O)[C@@H](CO)NS(=O)(=O)Cc1ccccc1)C(=O)NCc1ccc(NC(=N)N)s1 [AW]
Ki [1]: 250 to 2500 nM | IC50 [2]: > 2500 nM | IC50 [3]: > 2500 nM

CCCCS(=O)(=O)N[C@H](CO)C(=O)N[C@@H](C)C(=O)NCc1ccc(C(=N)N)cc1 [A]
Ki [1]: < 100 nM | IC50 [2]: > 2500 nM | IC50 [3]: > 2500 nM

CCCCS(=O)(=O)N[C@H](CO)C(=O)N[C@@H](C)C(=O)NCCCCNC(=N)N [B]
Ki [1]: 250 to 2500 nM | IC50 [2]: > 2500 nM | IC50 [3]: > 2500 nM

N=C(N)c1ccc(CNC(=O)[C@@H]2C=CCN2C(=O)[C@@H](CO)NS(=O)(=O)CCc2ccccc2)cc1 [F]
Ki [1]: < 100 nM | IC50 [2]: > 2500 nM

N=C(N)c1ccc(CNC(=O)[C@@H]2CCCN2C(=O)[C@@H](CO)NS(=O)(=O)Cc2ccccc2)cc1 [J]
IC50 [2]: > 2500 nM | IC50 [3]: 250 to 2500 nM

N=C(N)c1ccc(CNC(=O)[C@@H]2C=CCN2C(=O)[C@@H](CO)NS(=O)(=O)Cc2ccccc2)cc1 [K]
Ki [1]: < 100 nM | IC50 [2]: > 2500 nM | IC50 [3]: 250 to 2500 nM

CCCCS(=O)(=O)N[C@H](CO)C(=O)N[C@@H](C)C(=O)NCc1ccc(C(=N)N)s1 [L]
Ki [1]: < 100 nM | IC50 [2]: > 2500 nM | IC50 [3]: > 2500 nM

CCCCS(=O)(=O)N[C@H](CO)C(=O)N1CC2CC2C1C(=O)NCc1ccc(C(=N)N)cc1 (stereo partly drawn) [Q]
Ki [1]: < 100 nM | IC50 [2]: > 2500 nM | IC50 [3]: > 2500 nM

N=C(N)c1ccc(CNC(=O)[C@@H]2CCN2C(=O)[C@@H](CO)NS(=O)(=O)Cc2ccccc2)cc1 [R]
Ki [1]: < 100 nM | IC50 [2]: > 2500 nM | IC50 [3]: > 2500 nM

N=C(N)c1ccc(CNC(=O)[C@@H]2CCN2C(=O)[C@@H](CO)NS(=O)(=O)CCc2ccccc2)cc1 [S]
Ki [1]: 100 to 250 nM | IC50 [2]: > 2500 nM | IC50 [3]: > 2500 nM

N=C(N)c1ccc(CNC(=O)[C@@H]2C3CC3CN2C(=O)[C@@H](CO)NS(=O)(=O)Cc2ccccc2)cc1 (stereo partly drawn) [T]
Ki [1]: < 100 nM | IC50 [2]: > 2500 nM | IC50 [3]: 250 to 2500 nM

CCCCS(=O)(=O)N[C@H](CO)C(=O)N1CCC1C(=O)NCc1ccc(C(=N)N)cc1 (stereo partly drawn) [Z]
Ki [1]: < 100 nM | IC50 [2]: > 2500 nM | IC50 [3]: > 2500 nM
